Laboratory results: publication PMC9181852, “In Vivo and In Vitro Biological Evaluation and Molecular Docking Studies of Compounds Isolated from Micromeria biflora (Buch. Ham. ex D.Don) Benth” (Molecules, 2022)

Assays:
Hot plate analgesic test = format: in vivo, mice (Balb/c); conditions: dose 10 mg/kg
Procedure: (§1) Healthy mice (Balb/c) with weight ranging from 20 to 22 g and ages 9 to 10 weeks were used in this screening model. The grown animals were provided with standard laboratory conditions such as standard food and water ad libitum. The in vivo biological screening test was performed at the Department of Veterinary Medicine, College of Agriculture and Veterinary Medicine, Qassim University Buraydah, Saudi Arabia, as well as Swabi University, KP, Pakistan, according to published procedures.
The analgesic effect of salicylalazine isolated from M. biflora was obtained with help of a hot plate according to the published method. The animals were distributed into different groups according to the previously reported method. A preliminary screening test was performed on the animals using a hot plate (Harvard apparatus) sustained at 55 ± 2 °C. […] Group I (positive control) was administered with the standard drug, while Group II (negative control) was administered with normal saline. The other groups of animals were administered with 2.5, 5, 10, 15, and 20 mg/kg (PO). […] To avoid tissue damage, a cut-off time of 30 s was used for every animal. The latency time was recorded for all groups (n = 6) at consistent intervals (30, 60, 90, and 120 min).

[1] = Inclined plane muscle relaxation model; format: in vivo, mice (Balb/c); conditions: dose 1 mg/kg
Procedure: as §1
An inclined plane screening procedure was adapted to identify the muscle relaxation effects of salicylalazine isolated from M. biflora according to a reported procedure. The inclined plane used in screening contained two plywood boards, and these boards were connected, where one board was at 60 0 from the base while the other one was aligned from the base. Various groups of animals were distributed into several groups; each group comprised six animals (n = 6). Animals in each group were administered water (10 mL/kg), standard drug (diazepam, 1 mg/kg), and salicylalazine at different doses of 2.5, 5, 10, 15, and 20 mg/kg, i.p. After various time intervals, such as 30, 60, and 90 min post-administration, animals were allowed on the higher part of the inclined plane for 30 s to drop or hang.

Open field sedative test = format: in vivo, mice (Balb/c); conditions: dose 0.5 mg/kg, 30 min after administration
Procedure: as §1
The sedative potential of salicylalazine isolated from M. biflora was assessed as per the reported procedure. The animals were divided into different groups, as designated above. The apparatuses used in this screening contained an area of white wood with a 150 cm diameter bordered by stainless steel walls and was separated into 19 squares by black lines. Then, the open field apparatus was positioned inside the light and sound-reduced room. The different groups of animals were administered distilled water, diazepam, and salicylalazine at different doses. Thirty minutes after administration, all groups of animals were permitted to move from the center of the design box. […] Statistical calculations were performed by counting the number of lines crossed by every animal.

[2] = Traction muscle relaxation model; format: in vivo, mice (Balb/c); conditions: dose 1 mg/kg
Procedure: as §1
A traction screening model was adapted to identify the relaxation of muscle for salicylalazine isolated from M. biflora according to the standard method. The traction model was considered by using metallic wires covered with rubber, and then the wires were linked with each other using a stand around 60 cm upstairs of the lab bench. The animals were distributed into different groups, with each group comprising six animals (n = 6). The various groups of animals were administered water, diazepam, and salicylalazine at different doses. After administration, all groups of animals were subjected to traction screening after 30, 60, and 90 min. […] Traction testing was repeatedly performed to calculate the muscle relaxant ability of salicylalazine as per the reported method.

HepG2 = assay: Anticancer MTT assay, HepG2; format: cell-based; conditions: Homo sapiens, 24 h
Procedure: (§2) The MTT assay was used to assess the cytotoxicity of salicylalazine isolated from M. biflora as per the previously documented method. For the MTT assay, Gibco BRL was combined with 100 µg/mL of penicillin sodium salts, 10% FBS (Gibco), and sodium carbonate (2 mg/mL). The prepared medium was used to keep three human cancer cell lines: human hepatoma (HepG2), human A498, and renal NCI-h226 non-small cell lung). Mouse hepatocytes, including HepG2 and HepG-R, were planted in 96-well plates. The cell lines were preserved with salicylalazine (1.5–100 μM), hatched for 24 h, and then they were tracked using the MTT procedure^14. This method was used for all tested cell lines. The IC50 value of salicylalazine in different cell lines was calculated from the concentration-effect curves. The standard drug used in this experiment was paclitaxel.

MDR2780AD = assay: Anticancer MTT assay, MDR2780AD; format: cell-based; conditions: 24 h
NCI-H226 = assay: Anticancer MTT assay, NCI-H226; format: cell-based; conditions: Homo sapiens, 24 h
Procedure: as §2

A498 = assay: Anticancer MTT assay, A498; format: cell-based; conditions: Homo sapiens, 24 h
Procedure: as §2

## COc1cccc(C2(O)CCCCC2CN(C)C)c1 (stereo not drawn) [Tramadol, reference compound]
Hot plate analgesic test; 30 min
  Latency time on hot plate: 24.30 ± 0.07 s
Hot plate analgesic test; 60 min
  Latency time on hot plate: 25.90 ± 0.08 s
Hot plate analgesic test; 90 min
  Latency time on hot plate: 24.80 ± 0.14 s
Hot plate analgesic test; 120 min
  Latency time on hot plate: 24.68 ± 0.40 s

## CN1C(=O)CN=C(c2ccccc2)c2cc(Cl)ccc21 [Diazepam, reference compound]
[1]; 30 min
  Inclined Plane Test (%): 100 ± 0.00%
[1]; 60 min
  Inclined Plane Test (%): 100 ± 0.00%
[1]; 90 min
  Inclined Plane Test (%): 100 ± 0.00%
Open field sedative test
  No of Lines Crossed: 9.01 ± 0.51
[2]; 30 min
  Traction Test (%): 100 ± 0.00%
[2]; 60 min
  Traction Test (%): 100 ± 0.00%
[2]; 90 min
  Traction Test (%): 100 ± 0.00%

## CC(=O)O[C@H]1C(=O)[C@@]2(C)[C@H]([C@H](OC(=O)c3ccccc3)[C@]3(O)C[C@H](OC(=O)[C@H](O)[C@@H](NC(=O)c4ccccc4)c4ccccc4)C(C)=C1C3(C)C)[C@]1(OC(C)=O)CO[C@@H]1C[C@@H]2O [Paclitaxel, reference compound]
HepG2
  IC50: 7.51 ± 0.3 µM
MDR2780AD
  IC50: 0.18 ± 0.008 µM
NCI-H226
  IC50: 61.29 ± 0.31 µM
A498
  IC50: 95.23 ± 0.23 µM
